Data taken from patent publication US20250347692A1, “METHOD FOR DETERMINING THE RESPONSE TO METHOTREXATE (MTX) IN A HUMAN SUBJECT DIAGNOSED WITH RHEUMATOID ARTHRITIS” (BIOHOPE SCIENTIFIC SOLUTIONS FOR HUMAN HEALTH, S.L, priority 2022, published 2025).

Test system: PBMCs from naïve RA patients
Assay: ROS TEST: ROS production of PHA-activated PBMCs exposed to MTX, fluorimetry
Assay type: cell-based, human
Conditions: PBMCs of naïve RA patients with clinical remission at 6 months of methotrexate (n=17) versus those without (n=8), E. coli stimulated, ANOVA p 0.0003
Text: Therefore, the decision was made to investigate a model of in vitro exposure of RA patients' cells to MTX and the measurement of its direct effect as a pharmacodynamic biomarker of response. […] Therefore, the hypothesis is that treatment of PBMCs with the drug methotrexate causes an increase in reactive oxygen species (ROS) production due to increased apoptosis in T lymphocytes in responder patients. […] Based on the above, in the present example the above two assays will be carried out using PBMCs obtained or isolated from RA patients. Briefly, first, a peripheral blood draw is performed from a rheumatoid arthritis patient who meets the inclusion criteria indicated below in the “Methodology” section, and peripheral blood mononuclear cells (PBMCs) are isolated by density gradient. These PBMCs are frozen and maintained in liquid nitrogen for a time period of at least two weeks. After this time, the PBMCs are thawed and incubated in a flat-bottomed p96 plate at 37° C. and 5% CO2 for 24 hours. The next day, phytohemagglutinin (PHA) and MTX are added to the corresponding wells and the plate is incubated for 48 hours. Finally, the probes corresponding to each test are added: • ROS test: ROS probe+E. coli • MONOCYTE test: resazurin Both tests were carried out on the same plate, read at Ex/Em 535/610 wavelengths, in a fluorescence reader.

`CN(Cc1cnc2nc(N)nc(N)c2n1)c1ccc(C(=O)N[C@@H](CCC(=O)O)C(=O)O)cc1` [MTX, methotrexate] was tested, and the “ROS production levels (fluorescence units) after exposure of PBMCs to MTX” value was “significantly increased”.
